ChEMBL document CHEMBL1649257, “Rapid detection of a point mutation in the parC gene associated with decreased susceptibility to fluoroquinolones in Mycoplasma bovis” (2009)
Converted amounts (≈) assume the structure as drawn.

Assays:
Format in all cases: functional
[1] = tested on: Mycoplasmopsis bovis; experiment: Antimicrobial activity against Mycoplasma bovis isolate 4925 harboring GyrA 83Ser and ParC 84Asn mutant by broth microdilution method
[2] = tested on: Mycoplasmopsis bovis; experiment: Antimicrobial activity against Mycoplasma bovis isolate 330 harboring GyrA 83Ser and ParC 84Asp mutant by broth microdilution method
[3] = tested on: Mycoplasmopsis bovis; experiment: Antimicrobial activity against Mycoplasma bovis isolate 2670 harboring GyrA 83Ser and ParC 84Asp mutant by broth microdilution method
[4] = tested on: Mycoplasmopsis bovis; experiment: Antimicrobial activity against Mycoplasma bovis isolate 2643 harboring GyrA 83Phe and ParC 84Asp mutant by broth microdilution method
[5] = tested on: Mycoplasmopsis bovis; experiment: Antimicrobial activity against Mycoplasma bovis isolate 4879 harboring GyrA 83Phe and ParC 84Asn mutant by broth microdilution method
[6] = tested on: Mycoplasmopsis bovis; experiment: Antimicrobial activity against Mycoplasma bovis isolate 6099 harboring GyrA 83Ser and ParC 84Asp mutant by broth microdilution method
[7] = tested on: Mycoplasmopsis bovis; experiment: Antimicrobial activity against Mycoplasma bovis isolate 3222 harboring GyrA 83Ser and ParC 84Asp mutant by broth microdilution method
[8] = tested on: Mycoplasmopsis bovis; experiment: Antimicrobial activity against Mycoplasma bovis isolate 2458 harboring GyrA 83Phe and ParC 84Asp mutant by broth microdilution method
[9] = tested on: Mycoplasmopsis bovis; experiment: Antimicrobial activity against Mycoplasma bovis isolate 9603 harboring GyrA 83Ser and ParC 84Asp mutant by broth microdilution method
[10] = tested on: Mycoplasmopsis bovis; experiment: Antimicrobial activity against Mycoplasma bovis isolate 170 harboring GyrA 83Ser and ParC 84Asp mutant by broth microdilution method
[11] = tested on: Mycoplasmopsis bovis; experiment: Antimicrobial activity against Mycoplasma bovis isolate 4554 harboring GyrA 83Ser and ParC 84Asp mutant by broth microdilution method
[12] = tested on: Mycoplasmopsis bovis; experiment: Antimicrobial activity against Mycoplasma bovis isolate 476-2 harboring GyrA 83Ser and ParC 84Asp mutant by broth microdilution method
[13] = tested on: Mycoplasmopsis bovis; experiment: Antimicrobial activity against Mycoplasma bovis isolate 8998 harboring GyrA 83Ser and ParC 84Asp mutant by broth microdilution method
[14] = tested on: Mycoplasmopsis bovis; experiment: Antimicrobial activity against Mycoplasma bovis isolate 111-2 harboring GyrA 83Ser and ParC 84Asp mutant by broth microdilution method
[15] = tested on: Mycoplasmopsis bovis; experiment: Antimicrobial activity against Mycoplasma bovis isolate 1665 harboring GyrA 83Phe and ParC 84Asn mutant by broth microdilution method
[16] = tested on: Mycoplasmopsis bovis; experiment: Antimicrobial activity against Mycoplasma bovis isolate 2D harboring GyrA 83Ser and ParC 84Asp mutant by broth microdilution method
[17] = tested on: Mycoplasmopsis bovis; experiment: Antimicrobial activity against Mycoplasma bovis isolate 2E harboring GyrA 83Ser and ParC 84Asp mutant by broth microdilution method
[18] = tested on: Mycoplasmopsis bovis; experiment: Antimicrobial activity against Mycoplasma bovis isolate 9771 harboring GyrA 83Phe and ParC 84Asn mutant by broth microdilution method
[19] = tested on: Mycoplasmopsis bovis; experiment: Antimicrobial activity against Mycoplasma bovis isolate 3036 harboring GyrA 83Phe and ParC 84Asp mutant by broth microdilution method
[20] = tested on: Mycoplasmopsis bovis; experiment: Antimicrobial activity against Mycoplasma bovis isolate 2029 harboring GyrA 83Phe and ParC 84Asp mutant by broth microdilution method
[21] = tested on: Mycoplasmopsis bovis; experiment: Antimicrobial activity against Mycoplasma bovis isolate 77 harboring GyrA 83Phe and ParC 84Asp mutant by broth microdilution method
[22] = tested on: Mycoplasmopsis bovis; experiment: Antimicrobial activity against Mycoplasma bovis isolate 1416 harboring GyrA 83Phe and ParC 84Asp mutant by broth microdilution method
[23] = tested on: Mycoplasmopsis bovis; experiment: Antimicrobial activity against Mycoplasma bovis isolate 4241 harboring GyrA 83Phe and ParC 84Asn mutant by broth microdilution method
[24] = tested on: Mycoplasmopsis bovis; experiment: Antimicrobial activity against Mycoplasma bovis isolate 523 harboring GyrA 83Phe and ParC 84Asn mutant by broth microdilution method
[25] = tested on: Mycoplasmopsis bovis; experiment: Antimicrobial activity against Mycoplasma bovis isolate 3374 harboring GyrA 83Phe and ParC 84Asp mutant by broth microdilution method
[26] = tested on: Mycoplasmopsis bovis; experiment: Antimicrobial activity against Mycoplasma bovis isolate 8830 harboring GyrA 83Phe and ParC 84Asn mutant by broth microdilution method
[27] = tested on: Mycoplasmopsis bovis; experiment: Antimicrobial activity against Mycoplasma bovis isolate 8934 harboring GyrA 83Ser and ParC 84Asp mutant by broth microdilution method
[28] = tested on: Mycoplasmopsis bovis; experiment: Antimicrobial activity against Mycoplasma bovis isolate H harboring GyrA 83Ser and ParC 84Asp mutant by broth microdilution method
[29] = tested on: Mycoplasmopsis bovis; experiment: Antimicrobial activity against Mycoplasma bovis isolate 3181 harboring GyrA 83Phe and ParC 84Asn mutant by broth microdilution method
[30] = tested on: Mycoplasmopsis bovis; experiment: Antimicrobial activity against Mycoplasma bovis isolate 5180 harboring GyrA 83Ser and ParC 84Asp mutant by broth microdilution method
[31] = tested on: Mycoplasmopsis bovis; experiment: Antimicrobial activity against Mycoplasma bovis isolate 5848 harboring GyrA 83Phe and ParC 84Asp mutant by broth microdilution method
[32] = tested on: Mycoplasmopsis bovis; experiment: Antimicrobial activity against Mycoplasma bovis isolate 962 harboring GyrA 83Phe and ParC 84Asn mutant by broth microdilution method
[33] = tested on: Mycoplasmopsis bovis; experiment: Antimicrobial activity against Mycoplasma bovis isolate 7910 harboring GyrA 83Ser and ParC 84Asp mutant by broth microdilution method
[34] = tested on: Mycoplasmopsis bovis; experiment: Antimicrobial activity against Mycoplasma bovis isolate 861 harboring GyrA 83Ser and ParC 84Asp mutant by broth microdilution method
[35] = tested on: Mycoplasmopsis bovis; experiment: Antimicrobial activity against Mycoplasma bovis isolate K harboring GyrA 83Ser and ParC 84Asp mutant by broth microdilution method
[36] = tested on: Mycoplasmopsis bovis; experiment: Antimicrobial activity against Mycoplasma bovis isolate PG45 harboring GyrA 83Ser and ParC 84Asp mutant by broth microdilution method
[37] = tested on: Mycoplasmopsis bovis; experiment: Antimicrobial activity against Mycoplasma bovis isolate 4243 harboring GyrA 83Phe and ParC 84Asn mutant by broth microdilution method
[38] = tested on: Mycoplasmopsis bovis; experiment: Antimicrobial activity against Mycoplasma bovis isolate 1972 harboring GyrA 83Phe and ParC 84Asn mutant by broth microdilution method
[39] = tested on: Mycoplasmopsis bovis; experiment: Antimicrobial activity against Mycoplasma bovis isolate 9249 harboring GyrA 83Ser and ParC 84Asp mutant by broth microdilution method
[40] = tested on: Mycoplasmopsis bovis; experiment: Antimicrobial activity against Mycoplasma bovis isolate 6226 harboring GyrA 83Ser and ParC 84Asp mutant by broth microdilution method
[41] = tested on: Mycoplasmopsis bovis; experiment: Antimicrobial activity against Mycoplasma bovis isolate 1306 harboring GyrA 83Phe and ParC 84Asp mutant by broth microdilution method
[42] = tested on: Mycoplasmopsis bovis; experiment: Antimicrobial activity against Mycoplasma bovis isolate 7043 harboring GyrA 83Phe and ParC 84Asp mutant by broth microdilution method
[43] = tested on: Mycoplasmopsis bovis; experiment: Antimicrobial activity against Mycoplasma bovis isolate 3179 harboring GyrA 83Phe and ParC 84Asp mutant by broth microdilution method

With `CCN1CCN(c2cc3c(cc2F)c(=O)c(C(=O)O)cn3C2CC2)CC1` [ENROFLOXACIN] the MIC [1] was 2.5 µg/mL (≈ 6.96 µM), the MIC [2] was 0.08 µg/mL (≈ 0.223 µM) and the MIC [3] was 0.08 µg/mL (≈ 0.223 µM). The MIC [4] was 1.25 µg/mL (≈ 3.48 µM), the MIC [5] was 5 µg/mL (≈ 13.9 µM) and the MIC [6] was 0.16 µg/mL (≈ 0.445 µM). It also gave an MIC [7] of 0.16 µg/mL (≈ 0.445 µM), an MIC [8] of 1.25 µg/mL (≈ 3.48 µM) and an MIC [9] of 0.16 µg/mL (≈ 0.445 µM). It also gave an MIC [10] of 0.63 µg/mL (≈ 1.75 µM), an MIC [11] of 0.16 µg/mL (≈ 0.445 µM) and an MIC [12] of 0.16 µg/mL (≈ 0.445 µM). The MIC [13] was 0.08 µg/mL (≈ 0.223 µM), the MIC [14] was 0.16 µg/mL (≈ 0.445 µM) and the MIC [15] was 2.5 µg/mL (≈ 6.96 µM). It also gave an MIC [16] of 0.16 µg/mL (≈ 0.445 µM), an MIC [17] of 0.16 µg/mL (≈ 0.445 µM) and an MIC [18] of 5 µg/mL (≈ 13.9 µM). For the same compound, the MIC [19] was 1.25 µg/mL (≈ 3.48 µM), the MIC [20] was 0.32 µg/mL (≈ 0.89 µM) and the MIC [21] was 0.63 µg/mL (≈ 1.75 µM). For the same compound, the MIC [22] was 0.32 µg/mL (≈ 0.89 µM), the MIC [23] was 2.5 µg/mL (≈ 6.96 µM) and the MIC [24] was 2.5 µg/mL (≈ 6.96 µM). For the same compound, the MIC [25] was 1.25 µg/mL (≈ 3.48 µM), the MIC [26] was 5 µg/mL (≈ 13.9 µM) and the MIC [27] was 0.32 µg/mL (≈ 0.89 µM). The MIC [28] was 0.16 µg/mL (≈ 0.445 µM), the MIC [29] was 2.5 µg/mL (≈ 6.96 µM) and the MIC [30] was 0.16 µg/mL (≈ 0.445 µM). It also gave an MIC [31] of 1.25 µg/mL (≈ 3.48 µM), an MIC [32] of 5 µg/mL (≈ 13.9 µM) and an MIC [33] of 0.32 µg/mL (≈ 0.89 µM). It also gave an MIC [34] of 0.08 µg/mL (≈ 0.223 µM), an MIC [35] of 0.16 µg/mL (≈ 0.445 µM) and an MIC [36] of 0.16 µg/mL (≈ 0.445 µM). It also gave an MIC [37] of 2.5 µg/mL (≈ 6.96 µM), an MIC [38] of 2.5 µg/mL (≈ 6.96 µM) and an MIC [39] of 0.16 µg/mL (≈ 0.445 µM). The MIC [40] was 0.32 µg/mL (≈ 0.89 µM), the MIC [41] was 1.25 µg/mL (≈ 3.48 µM) and the MIC [42] was 0.32 µg/mL (≈ 0.89 µM). The MIC [43] was 0.63 µg/mL (≈ 1.75 µM).
